Assays:
[1] = tested on: VSV (vesicular stomatitis virus); assay type: cell-based; conditions: 0.1% in tissue cultures; A549, GMK and fibroblasts; Figure 2
[2] = tested on: Escherichia coli ATCC 8739; assay: Microorganism count in ester emulsions diluted with phosphate buffer, albumin solution or TSB (Example 16); assay type: cell-based
Description: The emulsions contained egg-yolk phospholipid 1,2% and sterile water in addition to ester. The emulsions were prepared aseptically, by emulsifying sterile-filtered ester with a sterilized dispersion of egg-yolk phospholipids.
Aliquots of these emulsions were diluted at a ratio of 1 to 10 with phosphate buffer (0.01 M, pH=7.0), seruma albumin solution 20% and Tryptone soya broth (TSB) respectively. Escherichia coli ATCC 8739 were added to the emulsions. The emulsions were then incubated for 20 hours at +37°C. The microorganism count was carried out after 1-5 minutes, 2 hours and 20 hours, in the manner described in microbiological literature. Parallel with the above tests, there was made a control of phosphate buffer and TSB with additions of Escherichia coli ATCC 8739. The latter substrate was tested to ascertain whether or not the microorganisms were viable. […] The starting concentration was about 10⁴. In the samples containing 4-methyl-3-oxo-pentanoic acid ethyl ester, the combination with phosphate buffer was 0 after 5 minutes, 0 after 2 hours and 0 after 20 hours. In the combination with 20% albumin solution, the microorganism count was 0 after 5 minutes, no count was taken after 2 hours, and 0 after 20 hours. […], the count in the combination with TSB was 0, no count was taken after 2 hours, and 0 after 20 hours.
In the samples containing 5-methyl-3-oxo-hexanoic acid ethyl ester, the count in the combination with phosphate buffer was 10 after 5 minutes, 0 after 2 hours, and 0 after 20 hours. The combination with 20% albumin solution was 10² after 5 minutes, no count was taken after 2 hours, and 0 after 20 hours. In the combination with TSB, the count was 10 after 5 minutes, no count was taken after 2 hours, and 0 after 20 hours. […] All microorganisms were eliminated within 20 hours by both esters at the same low concentration.

[3] = Admixture of ester to distilled water and amino acid solution (Vamin N), 5 days at +5°C; assay type: physicochemical
Description: 6 g of egg-yolk phospholipids were dissolved in 50 g of 5-methyl-3-oxo-hexanoic acid ethyl ester and 4-methyl-3-oxo-pentanoic acid ethyl ester respectively, while applying and stirring the system. When clear solutions had been obtained, 34 g of absolute alcohol (about 99%) were added, corresponding to the least quantity required for the solutions to remain stable in cold conditions without precipitation of phospholipids. These solutions were autoclaved at +117°C for 20 minutes. Aliquots of these solutions were taken (0.2; 1.0; 3.0 and 5% calculated on ethyl ester) and added respectively to distilled water and to an amino acid solution with a concentration of 7.18% and 9.4 g nitrogen/l (Vamin^R N). Controls were run, in which a pure product of 5-methyl-3-oxo-hexanoic acid ethyl ester and 4-methyl-3-oxo-pen tanoic acidethyl ester respectively were added to distilled water and amino acid solution respectively. All samples were shaken for 10 seconds in a shaking apparatus of the type Whirlimixer^R. The samples were then permitted to stand for 5 calender days in cold conditions (+5°C) and were read-off daily under a daylight lamp, observations being made as to the acceptable quality of the resultant emulsions (visually) or to ascertain the presence or absence of oil droplets on the surface of the emulsions, or separation thereof. […]

[4] = tested on: Escherichia coli ATCC 8739; assay: Microorganism count in 2% and 0.2% ester emulsions (Example 14); assay type: cell-based; conditions: for number of microorganisms: after 1-5 minutes, +37°C, starting concentration about 10⁴
Description: The emulsions contained egg-yolk phospholipid 1,2% and sterile water, in addition to ester. The emulsions were prepared aseptically, by emulsifying sterile-filtered ester with a steriled dispersion of egg-yolk phospholipids.
Aliquots of these emulsions were diluted with phosphate buffer (0.01 M, pH=7.0) in the proportions of 1 and 10 and 1 and 100 in respective emulsions. Escherichia coli ATCC 8739 was added to the solutions. The solutions were then incubated at +37°C for 20 hours. The microorganism count was carried out after 1-5 minutes, 2 and 20 hours, in the manner described in microbiological literature. Parallel with the above tests, a check was carried out on phospholipide solution 1,2% and TSB (Tryptone soya broth) with additions of Escherichia coli ATCC 8739. The latter substrate was tested to ascertain whether or not the control microorganisms were viable. […] The starting concentration was about 10⁴. In the samples containing 4-methyl-3-oxo-pentanoic acid ethyl ester having the concentrations of 2% and 0.2%, the number of microorganisms present per ml after 1-5 minutes was 0 and 10⁴ respectively. After 2 hours, the microorganism count was 0 and 10 respectively, and after 20 hours 0 and 10 respectively. In the samples containing 5-methyl-3-oxo-hexanoic acid ethyl ester with the concentrations of 2% and 0.2%, the microorganism count per ml was 10 and 10 respectively after 1-5 minutes, 0 and 0 respectively after 2 hours, and 0 and 0 respectively after 20 hours.

[5] = parameters: species or system rabbits; conditions: rabbit, in vivo
Description: Two rabbits weighing between 3.0-3.5 kg were infused intravenously (10 ml/kg body weight) with an emulsion containing 50 mg/ml of 4-methyl-3-oxo-pentanoic acid ethyl ester over a period of 5 minutes. Each rabbit received a dosage of 1.5-1.8 g over a 5 minute period. The emulsion was prepared aseptically, by emusifying sterile-filtered ester with a sterilized dispersion of egg-yolk phospholipids.
Three rabbits weighing 3.0-3.3 kg were infused intravenously (10 ml/kg body weight) with an emulsion containing 30 mg/ml of 4-methyl-3-oxo-pentanoic acid ethyl ester over a period of from 4 to 7 minutes. Each rabbit received a dosage of 0.9-1.05 g. The emulsion was prepared aseptically, by emulsifying sterile-filtered ester with a sterilized dispersion of egg-yolk phospholipids. […] The third rabbit remained normal during the whole of the infusion period. The two unconscious rabbits awakened about 2 minutes after completion of the infusion, and thereafter acted quite normally.

[6] = 20% emulsion diluted 1 to 10 with phosphate buffer, after 5 minutes, starting concentration about 10⁴
[7] = diluted 1 to 10 with 20% albumin solution, after 20 hours
[8] = diluted 1 to 10 with TSB, after 20 hours
[9] = diluted 1 to 10 with phosphate buffer, after 2 hours
[10] = diluted 1 to 10 with phosphate buffer, after 20 hours

Structure (SMILES): CCOC(=O)CC(=O)CC(C)C [5-methyl-3-oxo-hexanoic acid ethyl ester]
- suppression of replication of VSV [1]: replication can be inhibited
- microorganism count [2, 6]: 10
- microorganism count [2, 7]: 0
- microorganism count ([2]; diluted 1 to 10 with TSB, after 5 minutes): 10
- microorganism count [2, 8]: 0
- microorganism count [2, 9]: 0
- microorganism count [2, 10]: 0
- concentration to which the ester can be mixed (accepted samples) ([3]; free pure ester in amino acid solution (Vamin N)): 0.2%
- concentration to which the ester can be mixed (accepted samples) ([3]; free pure ester in distilled water): 0.2%
- number of microorganisms ([4]; 0.2%): 10 per ml
- microorganism count ([4]; 0.2%, after 2 hours): 0 per ml
- microorganism count ([4]; 0.2%, after 20 hours): 0 per ml
- number of microorganisms ([4]; 2%): 10 per ml
- microorganism count ([4]; 2%, after 2 hours): 0 per ml
- microorganism count ([4]; 2%, after 20 hours): 0 per ml

Structure (SMILES): CCOC(=O)CC(=O)C(C)C [4-methyl-3-oxo-pentanoic acid ethyl ester]
- time after completion of the infusion until awakening [5]: about 2 minutes
- time after completion of the infusion until consciousness regained [5]: about 2 minutes
- microorganism count [2, 6]: 0
- microorganism count ([2]; diluted 1 to 10 with 20% albumin solution, after 5 minutes): 0
- microorganism count [2, 7]: 0
- microorganism count ([2]; diluted 1 to 10 with TSB, after 4 hours): 0
- microorganism count [2, 8]: 0
- microorganism count [2, 9]: 0
- microorganism count [2, 10]: 0
- microorganism count ([4]; 0.2%, after 2 hours): 10 per ml
- microorganism count ([4]; 0.2%, after 20 hours): 10 per ml
- number of microorganisms ([4]; 2%): 0 per ml
- microorganism count ([4]; 2%, after 2 hours): 0 per ml
- microorganism count ([4]; 2%, after 20 hours): 0 per ml

Reference: patent publication EP0366632A1, “Alternative energy substrates” (priority 1988, dated 1990)
